Assay results taken from US11215608B2, “Methods of determining cellular chemosensitivity” (Dana-Farber Cancer Institute, Inc., priority 2006, dated 2022).
pEC50: −log10 of the molar value. Where “and” joins values, the source holds several entries; their conditions need not be identical. Equal values may be shown once. Read-outs that look alike come from different tables or passages of the source.

Columns and labels:
CLL cells [1] = experiment: Annexin-V death assay of freshly isolated primary CLL cells; format: cell-based, human; conditions: 48 hours
Procedure: (§1) Cells were stained with fluorescent conjugates of Annexin-V (BioVision) and propidium iodide (PI) and analyzed on a FACSCalibur machine (Becton-Dickinson).
(§2) 15 ml of blood in heparin treated tubes was obtained from each anonymous CLL patient and processed without freezing. Equal volume of media (RPMI medium, 10% […], supplemented with […] and 10 mg/ml transferrin) was mixed with each sample and CLL cells isolated by centrifugation through Ficoll-PAQUE Plus (Amersham). Cells were washed twice in media and cultured at a density of 2.0×10^6 cells/ml for up to 48 hours. Samples for FIG. 11A were obtained from 24 consecutive patients identified with WBC >50,000/μl. All guidelines and regulations were followed in accordance with IRB protocols #99-224 (Dana-Farber Cancer Institute). Normal PBMC's were obtained from tubing discarded following platelet donation by anonymous normal donors and processed as above, except cultured without insulin and transferrin.
Experimental replicates were performed using lysates or mitochondria from different CLL samples. In main body, where a P value is given, it was obtained by using a two-tailed Students t-test, and P<0.05 was considered statistically significant. GraphPad Prism software was used to determine EC50 values by non-linear dose-response curve fitting and to perform Mann-Whitney nonparametric testing in Table 5.
Freshly isolated primary CLL cells were incubated with ABT-737 or negative control enantiomer. After 48 hours, death was assessed using Annexin-V staining.

[2] = system: peripheral blood mononuclear cells (PBMC); experiment: Annexin-V death assay of normal PBMC; format: cell-based; conditions: Homo sapiens, 24 hours, read-out: EC50, PBMC from normal donors
Procedure: as §1, §2
CLL cells have shown sensitivity to ABT-737, so they were selected as a possible initial cancer model of BCL-2 dependence (Oltersdorf et al., 2005). Freshly isolated primary CLL cells were incubated with ABT-737 or negative control enantiomer. After 48 hours, death was assessed using Annexin-V staining. […] Directly targeting the apoptotic machinery might be expected to induce apoptosis rapidly.

FL5.12 cells = experiment: FL5.12 cell survival by Annexin V; format: cell-based, murine
Procedure: as §1
FL5.12 cells were cultured as described previously in Iscove's modified Dulbecco's medium, 10% fetal bovine serum, 1000 ug/ml G418 with or without IL-3 provided by 10% WEHI-3B supplement (supernatant of IL-3 secreting WEHI-3B cells). FL5.12 cells were stably transfected with a vector containing a neomycin resistance construct and either human BCL-2 cDNA (FL5.12-BCL-2) or no insert (wt). 2B4 cells were cultured in RPMI 1640 supplemented with 10% fetal bovine serum, 100 U/ml penicillin, 100 ug/ml streptomycin, 10 uM non-essential amino acids and 8 ul/L betamercaptoethanol. Stably transfected 2B4 cells were isolated after transfection with pLZR-GFP retroviral vector or vector with Flag-Mc1-1 (kind gift from Joe Opferman).
In order to test whether mitochondrial dependence on individual antiapoptotic protein function can be correlated with cellular behavior, cellular models of defined antiapoptotic dependence were investigated. First, it was determined if cellular requirement for BCL-2 for cellular survival correlates with the BCL-2 signature of mitochondrial sensitivity to sensitizer BH3 domains found in FIG. 1B. The pro-lymphocytic murine FL5.12 cell line requires IL-3 to maintain survival. […]

BAX [3] = experiment: BAX oligomerization / activation in mitochondria of IL-3 starved FL5.12-BCL-2 cells; format: biochemical, murine
Procedure: Mitochondria were isolated from wt FL5.12 cells and FL5.12-BCL-2 cells in the presence of IL-3, and from FL5.12-BCL-2 cells following 24 hours of IL-3 deprivation. […] Mitochondrial pellets were subjected to chemical crosslinking as previously described (Letai et al., 2002).
This model predicts that BCL-2 acts upstream of BAX activation by intercepting activator BH3 molecules. To test this prediction, in FIG. 6E, immunoprecipitation was performed with an antibody that recognizes only the activated form of BAX which exposes an N-terminus epitope (Desagher ct al., 1999; Hsu and You le, 1997). wt or BCL-2 expressing FL5.12 cells were exposed to IL-3 withdrawal as indicated.

CLL mitochondria = experiment: Cytochrome c release from CLL mitochondria; format: biochemical, human; conditions: peptides or compounds 100 μM
Procedure: Alternatively, mitochondria were purified from freshly isolated CLL cells and cell lines by mechanical disruption followed by differential centrifugation, as previously described (Letai et al., 2002). Mitochondrial suspensions were made at 0.5 mg protein/ml, except for the case of ABT-737 and negative control enantiomer treatments, where 0.1 mg/ml was used. Release of cytochrome c was determined by a comparison of cytochrome c in the pellet and supernatant quantitated by ELISA (R&D systems).
CLL mitochondria were incubated with BH3 peptides as well as ABT-737 and negative control enantiomer (FIG. 14). […] This pattern is diagnostic of mitochondrial BCL-2 dependence. […] Since the BH3 peptides in the sensitizer panel lack the ability to directly activate BAX and BAK, these experiments also implicated the presence of an activator molecule constitutively sequestered by BCL-2 in CLL.

BAX [4] = experiment: BAX oligomerization in CLL cells; format: cell-based, human; conditions: 4 hours
Procedure: 10^7 freshly isolated CLL cells were incubated with DMSO, 10 nM, 100 nM, or 1 μM ABT-737 or negative control enantiomer for 4 hours, % dead assessed by Annexin-V staining and FACS analysis, then treated with 0.3% saponin and 10 μM BMH for 30 minutes on ice. Cells were then lysed, loaded onto a 10% BISTris polyacrlyamide gel, transferred, and immunoblotted for BAX.

CLL cells [5] = experiment: Annexin-V death assay of freshly isolated primary CLL cells; format: cell-based, human; conditions: five samples
H146 and H1963 = conditions: in vitro and murine xenograft; cited from earlier work
BCL-2 = BCL-2 (Homo sapiens, UniProt P10415); conditions: cited from earlier work
BCL-XL = BCL-XL (Homo sapiens, UniProt Q07817); conditions: cited from earlier work
Sequence of BCL-XL (Q07817 whole entry, species assumed): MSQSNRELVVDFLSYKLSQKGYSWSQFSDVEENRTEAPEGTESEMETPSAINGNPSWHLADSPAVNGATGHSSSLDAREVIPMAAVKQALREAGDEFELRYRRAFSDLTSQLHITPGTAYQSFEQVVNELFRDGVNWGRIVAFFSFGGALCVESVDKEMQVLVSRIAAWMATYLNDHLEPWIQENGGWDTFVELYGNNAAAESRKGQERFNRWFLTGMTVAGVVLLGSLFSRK

Sequence of BCL-2 (P10415 whole entry, species assumed): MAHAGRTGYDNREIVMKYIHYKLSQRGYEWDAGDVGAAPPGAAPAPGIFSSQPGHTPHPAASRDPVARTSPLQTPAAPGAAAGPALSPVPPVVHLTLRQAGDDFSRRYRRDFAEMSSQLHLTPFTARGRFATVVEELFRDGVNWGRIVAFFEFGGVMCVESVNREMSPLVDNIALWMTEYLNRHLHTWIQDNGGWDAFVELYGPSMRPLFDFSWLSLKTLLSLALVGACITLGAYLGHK

For `CN(C)CC[C@H](CSc1ccccc1)Nc1ccc(S(=O)(=O)NC(=O)c2ccc(N3CCN(Cc4ccccc4-c4ccc(Cl)cc4)CC3)cc2)cc1[N+](=O)[O-]` [ABT-737], the pEC50 (CLL cells [1]; CLL cells of one patient per row (V1-V24), read-out: EC50 ABT-737) was 8.44 and 8.68 and 8.51 and 8.72 and 8.39 and 8.06 and 8.24 and 8.22 and 8.48 and 8.19 and 8.54 and 8.03 and 8.64 and 8.32 and 8.40 and 8.13 and 8.21 and 8.15 and 8.49 and 8.46, the pEC50 (CLL cells [1]; Homo sapiens, CLL cell, 48 h, twenty-four CLL samples, read-out: mean EC50, apoptosis of CLL cells) was 8.35 and the pEC50 (CLL cells [1]; Homo sapiens, CLL cell, 48 h, twenty-four CLL samples, read-out: range of EC50 over CLL samples) was 8.03 to 8.72. For the same compound, the pEC50 [2] was under 6.00, the toxicity (FL5.12 cells; IL-3 replete wt FL5.12 cells) was “non-toxic” and the cell death (FL5.12 cells; IL-3 starved FL5.12-BCL-2 cells, 24 hours) was “induced cell death in the IL-3 starved”. The “cytochrome c release and BAX activation” value (BAX [3]; mitochondria from IL-3 starved cells) was “restored cytochrome c release and BAX activation”, the BAX oligomerization (BAX [3]; peptides 30 uM, ABT-737 10 uM, 35 minutes) was “results in BAX oligomerization” and the cytochrome c release (CLL mitochondria) was “also induced cytochrome c release”. For the same compound, the “oligomerization of BAX” value (BAX [4]) was “oligomerization of BAX within four hours”, the “response of CLL cells after four hours” value (CLL cells [5]) was “responded similarly compared to 48-hour treatment” and the “sensitivity of H146 and H1963 to treatment” value (H146 and H1963) was “sensitive to treatment with ABT-737 in vitro and in an in vivo murine xenograft model”. The “affinity to BCL-2” value (BCL-2) was “sub-nanomolar range” and the “affinity to BCL-XL” value (BCL-XL) was “sub-nanomolar range”.
